Measured values taken from PMC9110316 (Computational and Structural Biotechnology Journal, 2022).
pEC50, pIC50: −log10 of the molar value. Read-outs that look alike come from different tables or passages of the source. Where a SMILES comes first, the peptide text is derived from it. [ ]: non-standard residue; d: D form. The star is where a group is joined. Nle = CCCC[CH](N)C(=O)O; Cbz = O=C(OCc1ccccc1)*

Legend:
SARS-CoV-2 pseudovirus [1] = experiment: microbe, parasite or virus in culture; conditions: Severe acute respiratory syndrome-related coronavirus, A549, read-out: EC50, inhibition of SARS-CoV-2 pseudovirus infection
[2] = MTT cell viability assay in A549 cells; type: cell-based; conditions: human
[3] = MTT cell viability assay in Huh7 cells; type: cell-based; conditions: human
[4] = target: CTSL protein prepared from human liver tissue (Homo sapiens, UniProt P07711); experiment: biochemical; conditions: for inhibition at 100 µM: read-out: inhibition against CTSL (inhibition efficiency)
Sequence of CTSL protein prepared from human liver tissue (P07711 114-288 limits assumed): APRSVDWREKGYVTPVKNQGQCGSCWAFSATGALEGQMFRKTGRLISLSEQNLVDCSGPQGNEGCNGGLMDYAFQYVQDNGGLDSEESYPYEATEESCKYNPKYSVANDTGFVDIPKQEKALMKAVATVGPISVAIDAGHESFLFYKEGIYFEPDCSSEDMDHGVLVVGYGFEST
Sequence of CTSL protein prepared from human liver tissue (P07711 292-333 limits assumed): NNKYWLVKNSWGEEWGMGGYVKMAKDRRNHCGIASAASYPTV

SARS-CoV-2 pseudovirus [5] = experiment: microbe, parasite or virus in culture; conditions: Severe acute respiratory syndrome-related coronavirus, Huh-7, read-out: EC50, inhibition of SARS-CoV-2 pseudovirus infection
SARS-CoV-2 pseudovirus [6] = test system: SARS-CoV-2 pseudovirus

Row | Compound | pEC50 (SARS-CoV-2 pseudovirus [1]) | CC50 at 24 h [2] | CC50 at 24 h [3] | pIC50 [4] | inhibition at 100 µM [4] | pEC50 (SARS-CoV-2 pseudovirus [5]) | SI (selectivity index, ratio of CC50 and EC50) (SARS-CoV-2 pseudovirus [6])
1 | CC(=O)N[C@@H](CC(C)C)C(=O)N[C@@H](CC(C)C)C(=O)N[C@H](C=O)CCCNC(=N)N [leupeptin hemisulfate] | 5.37 | > 5000 µM | > 5000 µM | > 8.10 | > 90% | 4.41 | –
2 | CCCCCCCCCC(=O)N[C@@H](Cc1c[nH]c2ccccc12)C(=O)N[C@H](CC(N)=O)C(=O)N[C@@H](CC(=O)O)C(=O)N[C@@H]1C(=O)NCC(=O)N[C@@H](CCCN)C(=O)N[C@@H](CC(=O)O)C(=O)N[C@H](C)C(=O)N[C@@H](CC(=O)O)C(=O)NCC(=O)N[C@H](CO)C(=O)N[C@@H]([C@H](C)CC(=O)O)C(=O)N[C@@H](CC(=O)c2ccccc2N)C(=O)O[C@@H]1C [daptomycin] | – | > 5000 µM | 3570 µM | 5.10 | – | – | –
3 | CCCC[C@@H](C=O)NC(=O)[C@H](CC(C)C)NC(=O)OCc1ccccc1 [calpeptin] | 4.46 | 595 µM | 116 µM | – | > 90% | 4.53 | –
4 | CC1(C)CCC2=C(O1)c1ccccc1C(=O)C2=O [beta-lapachone] | – | – | 47.4 µM | < 4.00 | – | 5.29 | 9.31
5 | CC(C)C[C@@H](C=O)NC(=O)[C@H](CC(C)C)NC(=O)[C@H](CC(C)C)NC(=O)OCc1ccccc1 [Mg-132] (Cbz-Leu-Leu-Leu-aldehyde) | 6.80 | > 200 µM | 100 µM | – | > 90% | 6.67 | –
6 | CCCCC(C=O)NC(=O)C(CC(C)C)NC(=O)C(CC(C)C)NC(C)=O (stereo not drawn) [Mg-101] (Ac-Leu-Leu-[Nle]-aldehyde; configuration not given here) | 5.94 | 355 µM | 64.3 µM | > 8.10 | > 90% | 5.51 | –
7 | CC(NC(=O)C(Cc1ccccc1)NC(=O)OCc1ccccc1)C(=O)CF (centres unmarked) [Z-FA-FMK] | 5.95 | > 400 µM | 328 µM | 7.26 | > 90% | 6.15 | –
